Our source for the melting point values is patent US6492383B1, “Thienopyrimidine and thienopyridine derivatives useful as anticancer agents” (Pfizer Inc., priority 1998, dated 2002).

Where a name gives a salt, the structure may show the parent alone.

In general, melting point refers to the temperature of the solid-liquid transition. As for `Fc1ccc(-c2cc3ncnc(Nc4ccc5[nH]ccc5c4)c3s2)cc1Cl` [Example 12, [6-(3-Chloro-4-fluoro-phenyl)-thieno[3,2-d]pyrimidin-4-yl]-(1H-indol-5-yl)-amine], the melting point was in the range of 175 to 183 °C.
For `Cc1cccc(Nc2ncnc3cc(-c4ccccc4)sc23)c1` (as salt: HCl) [Example 92, (6-Phenyl-thieno[3,2-d]pyrimidin-4-yl)-m-tolyl-amine], the melting point lay in the range of 238 to 241 °C.
In turn, `O=[N+]([O-])c1cccc(-c2cc3ncnc(Nc4ccc5[nH]ccc5c4)c3s2)c1` [Example 10, (1H-Indol-5-yl)-[6-(3-nitro-phenyl)-thieno[3,2-d]pyrimidin-4-yl]-amine] returned a melting point of 175 to 183 °C.
Turning to `CN(C)CCNCc1ccc(-c2cc3ncnc(Nc4ccc5[nH]ccc5c4)c3s2)cc1` [Example 18, N-{4-[4-(1H-Indol-5-ylamino)-thieno[3,2-d]pyrimidin-6-yl]-benzyl}-N′,N′-dimethyl-ethane-1,2-diamine], the melting point was 170 to 183 °C.
In the case of `CCc1ccc(-c2cc3ncnc(Nc4ccc5[nH]ccc5c4)c3s2)cc1` [Example 13, [6-(4-Ethyl-phenyl)-thieno[3,2-d]pyrimidin-4-yl]-(1H-indol-5-yl)-amine], the melting point is 171 to 182 °C.
As to `OCCN(CCO)Cc1ccc(-c2cc3ncnc(Nc4ccc5[nH]ccc5c4)c3s2)cc1` (as salt: mesylate) [Example 29, 2-((2-Hydroxy-ethyl)-{4-[4-(1H-indol-5-ylamino)-thieno[3,2-d]pyrimidin-6-yl]-benzyl}-amino)-ethanol], the melting point was 110 to 127 °C.
The same measure for `c1nc(Nc2ccc3[nH]ccc3c2)c2sc(-c3ccsc3)cc2n1` [Example 8, (1H-indol-5-yl)-(6-thiophen-3-yl-thieno[3,2-d]pyrimidin-4-yl)-amine]: 178 to 189 °C; for `c1ccc(COCCNc2ccc(Nc3ncnc4cc(-c5ccccc5)sc34)cc2)cc1` [Example 73, N-(2-Benzyloxy-ethyl)-N′-(6-phenyl-thieno[3,2-d]pyrimidin-4-yl)-benzene-1,4-diamine]: 201 to 203 °C.
`O=C1CCCN1CCCNCc1ccc(-c2cc3ncnc(Nc4ccc5[nH]ccc5c4)c3s2)cc1` [Example 35, 1-(3-{4-[4-(1H-Indol-5-ylamino)-thieno[3,2-d]pyrimidin-6-yl]-benzylamino}-propyl)-pyrrolidin-2-one]: the melting point lay in the range of 139 to 146 °C.
In turn, `COC(=O)CCNCc1ccc(-c2cc3ncnc(Nc4ccc5[nH]ccc5c4)c3s2)cc1` (as salt: HCl) [Example 17, 3-{4-[4-(1H-Indol-5-ylamino)-thieno[3,2-d]pyrimidin-6-yl]-benzylamino}-propionic Acid Methyl Ester] returned a melting point of 105 to 118 °C.
With `COc1cccc(Nc2ccc(Nc3ncnc4cc(-c5ccccc5)sc34)cc2)c1` [Example 66, N-(3-Methoxy-phenyl)-N′-(6-phenyl-thieno[3,2-d]pyrimidin-4-yl)-benzene-1,4-diamine], the melting point was 189 to 191 °C.
On to `COc1ccc(Nc2ccc(Nc3ncnc4cc(-c5cccs5)sc34)cc2)cc1` [Example 81, N-(4-Methoxy-phenyl)-N′-(6-thiophen-2-yl-thieno[3,2-d]pyrimidin-4-yl)-benzene-1,4-diamine], for which the melting point lay in the range of 231 to 240 °C.
For `COc1ccc(-c2cc3ncnc(Nc4ccc5[nH]ccc5c4)c3s2)cn1` [Example 86, (1H-Indol-5-yl)-[6-(6-methoxy-pyridin-3-yl)-thieno[3,2-d]pyrimidin-4-yl]-amine], the melting point lay within 243 to 249 °C.
As for `COCCCNCc1ccc(-c2cc3ncnc(Nc4ccc5[nH]ccc5c4)c3s2)cc1` [Example 22, (1H-Indol-5-yl)-(6-{4-[(3-methoxy-propylamino)-methyl]-phenyl}-thieno[3,2-d]pyrimidin-4-yl)-amine], the melting point fell in the range of 160 to 175 °C.
